Data taken from paper PMC5764481, “Synthesis, characterization and in vitro antitrypanosomal activities of new carboxamides bearing quinoline moiety” (PLoS ONE, 2018).
Values joined by “and” are separate entries in the source; they are usually repeats but may differ in a detail not shown here. Identical values can stand only once.

Tested on: T. b. gambiense strain
Assay: In vitro antitrypanosomal activities (LILIT, Alamar Blue)
Type: cell-based, Trypanosoma brucei gambiense
Settings: Trypanosoma brucei, GAMBIENSE, 72 h
Description: In vitro antitrypanosomal activities against T. b. gambiense strain was described by Otoguro et al. In brief, T. b. gambiense strain was cultured in IMDM with various supplements and 10% heat-inactivated FBS at 37°C, under 5.0% CO2/95% air according to the method of Baltz et al. Ninety five […] of the trypanosomes suspension (2.0–2.5104 trypanosomes/mL for strain GUTat 3.1) was seeded in a 96-well microplate, and […] of a test compound solution (dissolved in 5.0% dimethylsulfoxide) was added followed by incubation for 72 h (long incubation-low inoculation test: LILIT). Ten […] of the fluorescent dye Alamar Blue was added to each well. After incubation for 3–6 h, the resulting solution was read at 528/20 nm excitation wavelength and 590/35 nm emission wavelength by a FLx800 fluorescent plate reader (Bio-Tek Instrument, Inc. Vermont, USA). Data were transferred into a spreadsheet program (Excel). The IC50 values were determined using fluorescent plate reader software (KC-4, Bio-Tek). Successive subcultures were done in 24-well tissue culture plates under the same conditions.

Compound	IC50
Nc1nc(N)nc(Nc2ccc([As]3SCC(CO)S3)cc2)n1 (stereo not shown) [melarsoprol]	5 nM

Same assay, conditions: Trypanosoma brucei; T. b. gambiense strain GUTat 3.1, 72 h incubation, Alamar Blue fluorescence; read-out: IC50

Compound	IC50
Cc1ccc(S(=O)(=O)N(C(=O)c2ccccc2)C(Cc2cc3ccccc3[nH]2)C(=O)Nc2cnc3ccccc3c2)cc1 (stereo not shown) [Compound 11c, 3-(1H-indol-2-yl)-2-[N-(4-methylbenzenesulfonyl)-1-phenylformamido]-N-(quinolin-3-yl)propanamide]	106 ± 0.03 nM
O=C(Nc1cnc2ccccc2c1)C(Cc1cc2ccccc2[nH]1)N(C(=O)c1ccccc1)S(=O)(=O)c1ccccc1 (stereo not shown) [Compound 11k, 2-[N-(benzenesulfonyl)-1-phenylformamido]-3-(1H-indol-2-yl)-N-(quinolin-3-yl)propanamide]	109 ± 0.08 nM

Same assay, conditions: read-out: IC50

Compound	IC50
2-[N-(benzenesulfonyl)-1-phenylformamido]-3-methyl-N-(quinolin-3-yl)pentanamide [Compound 11m]	125 ± 0.09 nM
4-Hydroxy-1-(4-methylbenzenesulfonyl)-N-(quinolin-3-yl)pyrrolidine-2-carboxamide [Compound 11g]	2 nM
3-Methyl-2-[N-(4-methylbenzenesulfonyl)-1-phenylformamido]-N-(quinolin-3-yl)butanamide [Compound 11f]	3 nM
1-(4-Nitrobenzenesulfonyl)-N-(quinolin-3-yl)pyrrolidine-2-carboxamide [Compound 11x]	3 nM
3-Methyl-2-[N-(4-nitrobenzenesulfonyl)-1-phenylformamido]-N-(quinolin-3-yl)butanamide [Compound 11v]	1 nM
2-[N-(4-nitrobenzenesulfonyl)-1-phenylformamido]-3-phenyl-N-(quinolin-3-yl)propanamide [Compound 11r]	108 ± 0.09 nM
2-[N-(4-methylbenzenesulfonyl)-1-phenylformamido]-N-(quinolin-3-yl)acetamide [Compound 11a]	136 ± 0.03 nM
1-(Benzenesulfonyl)-4-hydroxy-N-(quinolin-3-yl)pyrrolidine-2-carboxamide [Compound 11o]	3 nM
4-Methyl-2-[N-(4-nitrobenzenesulfonyl)-1-phenylformamido]-N-(quinolin-3-yl)pentanamide [Compound 11t]	114 ± 0.09 nM
4-Hydroxy-1-(4-nitrobenzenesulfonyl)-N-(quinolin-3-yl)pyrrolidine-2-carboxamide [Compound 11w]	2 nM
2-[N-(4-nitrobenzenesulfonyl)-1-phenylformamido]-N-(quinolin-3-yl)acetamide [Compound 11q]	128 ± 0.09 nM
1-(Benzenesulfonyl)-N-(quinolin-3-yl)pyrrolidine-2-carboxamide [Compound 11p]	4 nM
1-(4-Methylbenzenesulfonyl)-N-(quinolin-3-yl)pyrrolidine-2-carboxamide [Compound 11h]	5 nM and 6 nM
4-Methyl-2-[N-(4-methylbenzenesulfonyl)-1-phenylformamido]-N-(quinolin-3-yl)pentanamide [Compound 11d]	121 ± 0.05 nM
2-[N-(benzenesulfonyl)-1-phenylformamido]-4-methyl-N-(quinolin-3-yl)pentanamide [Compound 11l]	125 ± 0.1 nM
2-[N-(benzenesulfonyl)-1-phenylformamido]-N-(quinolin-3-yl)acetamide [Compound 11i]	140 ± 0.03 nM
2-[N-(benzenesulfonyl)-1-phenylformamido]-3-phenyl-N-(quinolin-3-yl)propanamide [Compound 11j]	116 ± 0.04 nM
3-Methyl-2-[N-(4-nitrobenzenesulfonyl)-1-phenylformamido]-N-(quinolin-3-yl)pentanamide [Compound 11u]	114 ± 0.03 nM
2-[N-(benzenesulfonyl)-1-phenylformamido]-3-methyl-N-(quinolin-3-yl)butanamide [Compound 11n]	1 nM
2-[N-(4-methylbenzenesulfonyl)-1-phenylformamido]-3-phenyl-N-(quinolin-3-yl)propanamide [Compound 11b]	114 ± 0.05 nM

Tested on: not listed separately
Assay: Determination of LD50 in mice
Settings: mouse, in vivo, ip; male mice, intraperitoneal, observed 72 h
Description: Male mice were divided into various groups and test compounds were administered in various doses intraperitoneally. […] All behavioral changes and deaths during the observation periods were recorded. The percentage of death at each dose level was then calculated, converted to probits and the LD50 (μM/kg) values were calculated. To observe the health status of the mice, they were monitored 4 times a day. […] For the purpose of ameliorating the suffering of the dying mice, CO2 euthanasia was applied. All the dead mice were disposed in bio-safety containers in accordance with local standard protocols. The mortality rate in each group was calculated according to the formula: Mortalityrate(%)=(thenumberofdeadmice/thenumberofmiceinthegroup)×100.

Compound	LD50 at 72 h
Nc1nc(N)nc(Nc2ccc([As]3SCC(CO)S3)cc2)n1 (stereo not shown) [melarsoprol]	7.21 ± 0.28 µmol/kg

Tested on: not given
Assay: not given
Settings: not given

melting point	Compound
88.1 to 88.8 °C	Cc1ccc(S(=O)(=O)N(C(=O)c2ccccc2)C(Cc2cc3ccccc3[nH]2)C(=O)Nc2cnc3ccccc3c2)cc1 (stereo not shown) [Compound 11c, 3-(1H-indol-2-yl)-2-[N-(4-methylbenzenesulfonyl)-1-phenylformamido]-N-(quinolin-3-yl)propanamide]
73.5 to 73.8 °C	O=C(Nc1cnc2ccccc2c1)C(Cc1cc2ccccc2[nH]1)N(C(=O)c1ccccc1)S(=O)(=O)c1ccccc1 (stereo not shown) [Compound 11k, 2-[N-(benzenesulfonyl)-1-phenylformamido]-3-(1H-indol-2-yl)-N-(quinolin-3-yl)propanamide]

Tested on: T. b. rhodesiense
Assay: not given
Settings: cited from earlier work

Compound	effectiveness against T. b. rhodesiense
NCCCC(N)(C(=O)O)C(F)F (stereo not shown) [Eflornithine]	ineffective

Tested on: people
Assay: not given
Settings: cited from earlier work

Compound	people who die from adverse effects related to treatment
Nc1nc(N)nc(Nc2ccc([As]3SCC(CO)S3)cc2)n1 (stereo not shown) [melarsoprol]	1–5%
